# Literature values as cited in article PMC12333940, “A prometabolite strategy inhibits cardiometabolic disease in an ApoE^–/– murine model of atherosclerosis” (JCI Insight, 2025).
# System: bone marrow–derived dendritic cells (BMDCs)
# Set-up: method as in PMID 38561491, PMID 27897220
# Details: BMDCs ref 28, 40; cited from earlier work
smiles,measurement,value
"CCCC(=O)OC[C@H](N)C(=O)O [SerBut, O-butyryl-L-serine]",inflammatory marker expression,suppressed inflammatory marker expression
